# Source: patent US20240246937A1 (MERCK SHARP & DOHME LLC, priority 2021, published 2024)
# Target: recombinant IL4I1 (Homo sapiens (Human), UniProt Q96RQ9)
# Experiment: IL4I1 Enzymatic Assay (Amplex Red/HRP coupled fluorescence detection of H2O2)
# Format: biochemical
# Details: 240 min; recombinant IL4I1, four-hour pre-incubation with compound
# Outline: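 Ten-point, 1:3 compound titrations were fitted by four-parameter sigmoidal regression to give EC50. Resorufin fluorescence (544/590 nm) from Amplex Red/HRP-coupled H2O2 detection was read 120 min after adding 1 mM each aromatic amino acid to 1 nM IL4I1, following a 4 h compound pre-incubation in pH 7.0 Hepes buffer.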
# recombinant IL4I1, sequence (Q96RQ9 22-567): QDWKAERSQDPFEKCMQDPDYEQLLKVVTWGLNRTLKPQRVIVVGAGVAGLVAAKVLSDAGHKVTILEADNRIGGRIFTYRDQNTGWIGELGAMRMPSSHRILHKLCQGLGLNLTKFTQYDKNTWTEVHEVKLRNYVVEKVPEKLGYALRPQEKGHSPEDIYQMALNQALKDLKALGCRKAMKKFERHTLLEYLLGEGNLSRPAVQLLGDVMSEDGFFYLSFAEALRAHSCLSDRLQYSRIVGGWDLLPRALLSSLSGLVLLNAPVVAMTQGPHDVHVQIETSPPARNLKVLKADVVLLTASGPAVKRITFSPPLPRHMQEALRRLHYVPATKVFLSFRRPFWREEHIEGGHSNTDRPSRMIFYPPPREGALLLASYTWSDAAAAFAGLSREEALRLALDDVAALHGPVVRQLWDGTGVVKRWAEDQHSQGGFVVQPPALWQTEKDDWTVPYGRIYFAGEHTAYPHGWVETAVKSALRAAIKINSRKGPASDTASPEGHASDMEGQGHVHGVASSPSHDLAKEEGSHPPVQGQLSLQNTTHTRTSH
row,SMILES,EC50 [nM]
1,"O=c1c(=O)n(C23CC(C2)C3)ccn1Cc1ccc(-c2cccnc2)nn1 [Example 85, 1-(bicyclo[1.1.1]pentan-1-yl)-4-((6-(pyridin-3-yl)pyridazin-3-yl)methyl)-1,4-dihydropyrazine-2,3-dione]",29
2,"O=c1c(=O)n(C23CC(C2)C3)ccn1Cc1ccc(-c2ccccn2)cn1 [Example 86, 1-([2,3′-bipyridin]-6′-ylmethyl)-4-(bicyclo[1.1.1]pentan-1-yl)-1,4-dihydropyrazine-2,3-dione]",27
3,"CC1(n2ccn(Cc3ccc(-c4ccccn4)nn3)c(=O)c2=O)CC1 [Example 87, 1-(1-methylcyclopropyl)-4-((6-(pyridin-2-yl)pyridazin-3-yl)methyl)-1,4-dihydropyrazine-2,3-dione]",87
4,"CC1(n2ccn(Cc3ccc(-c4ccccn4)cn3)c(=O)c2=O)CC1 [Example 88, 1-([2,3′-bipyridin]-6′-ylmethyl)-4-(1-methylcyclopropyl)-1,4-dihydropyrazine-2,3-dione]",69
5,"N#CC1(n2ccn(Cc3ccc(-c4cccnc4)nn3)c(=O)c2=O)CC1 [Example 89, 1-(2,3-dioxo-4-((6-(pyridin-3-yl)pyridazin-3-yl)methyl)-3,4-dihydropyrazin-1(2H)-yl)cyclopropane-1-carbonitrile]",32
6,"CC1(n2ccn(Cc3ccc(-c4cccnc4)nn3)c(=O)c2=O)CC1 [Example 90, 1-(1-methylcyclopropyl)-4-((6-(pyridin-3-yl)pyridazin-3-yl)methyl)-1,4-dihydropyrazine-2,3-dione]",63
7,"N#CC1(n2ccn(Cc3ccc(-c4ccccn4)nn3)c(=O)c2=O)CC1 [Example 91, 1-(2,3-dioxo-4-((6-(pyridin-2-yl)pyridazin-3-yl)methyl)-3,4-dihydropyrazin-1(2H)-yl)cyclopropane-1-carbonitrile]",162
8,"N#CC1(n2ccn(Cc3ccc(-c4ccccn4)cn3)c(=O)c2=O)CC1 [Example 92, 1-(4-([2,3′-bipyridin]-6′-ylmethyl)-2,3-dioxo-3,4-dihydropyrazin-1(2H)-yl)cyclopropane-1-carbonitrile]",155
9,"O=c1c(=O)n(C23CC(C2)C3)ccn1Cc1ccc(-c2ccccn2)nn1 [Example 93, 1-(bicyclo[1.1.1]pentan-1-yl)-4-((6-(pyridin-2-yl)pyridazin-3-yl)methyl)-1,4-dihydropyrazine-2,3-dione]",31
10,"CC1(n2ccn(Cc3ccc(-c4cncs4)nn3)c(=O)c2=O)CC1 [Example 94, 1-(1-methylcyclopropyl)-4-((6-(thiazol-5-yl)pyridazin-3-yl)methyl)-1,4-dihydropyrazine-2,3-dione]",35
11,"O=c1c(=O)n(C23CC(C2)C3)ccn1Cc1ccc(-c2cncs2)nn1 [Example 95, 1-(bicyclo[1.1.1]pentan-1-yl)-4-((6-(thiazol-5-yl)pyridazin-3-yl)methyl)-1,4-dihydropyrazine-2,3-dione]",16
12,"O=c1c(=O)n(C23CC(C2)C3)ccn1Cc1cnc(-c2ccccc2)nc1 [Example 111, 1-(bicyclo[1.1.1]pentan-1-yl)-4-((2-phenylpyrimidin-5-yl)methyl)-1,4-dihydropyrazine-2,3-dione]",8
13,"O=c1c(=O)n(C23CC(C2)C3)ccn1Cc1ccc(-c2ccccc2)cn1 [Example 115, 1-(bicyclo[1.1.1]pentan-1-yl)-4-((5-phenylpyridin-2-yl)methyl)-1,4-dihydropyrazine-2,3-dione]",4
14,"O=C1C(=O)N(C23CC(C2)C3)CCN1Cc1ccc(-n2nccn2)nc1 [Example 116, 1-((6-(2H-1,2,3-triazol-2-yl)pyridin-3-yl)methyl)-4-(bicyclo[1.1.1]pentan-1-yl)piperazine-2,3-dione]",17
15,"O=C1C(=O)N(C23CC(C2)C3)CCN1Cc1ccc(-n2ccnn2)nc1 [Example 117, 1-((6-(1H-1,2,3-triazol-1-yl)pyridin-3-yl)methyl)-4-(bicyclo[1.1.1]pentan-1-yl)piperazine-2,3-dione]",14
16,"O=c1c(=O)n(C23CC(C2)C3)ccn1Cc1nnc(-c2ccccc2)s1 [Example 120, 1-(bicyclo[1.1.1]pentan-1-yl)-4-((5-phenyl-1,3,4-thiadiazol-2-yl)methyl)-1,4-dihydropyrazine-2,3-dione]",3
17,"O=C1C(=O)N(C23CC(C2)C3)CCN1Cc1nnc(-c2ccccc2)s1 [Example 121, 1-(bicyclo[1.1.1]pentan-1-yl)-4-((5-phenyl-1,3,4-thiadiazol-2-yl)methyl)piperazine-2,3-dione]",7
18,"O=c1c(=O)n(C2CCCC2)ccn1Cc1nnc(-c2ccccc2)s1 [Example 124, 1-cyclopentyl-4-((5-phenyl-1,3,4-thiadiazol-2-yl)methyl)-1,4-dihydropyrazine-2,3-dione]",7

# Further lines, results first:
row,EC50 [nM],SMILES
1,14,"O=C1C(=O)N([C@H]2C[C@H](c3ccccc3)C2)CCN1Cc1ccc(-c2ccccc2)nn1 [Example 96A, trans-1-(3-phenylcyclobutyl)-4-((6-phenylpyridazin-3-yl)methyl)piperazine-2,3-dione]"
2,8,"O=C1C(=O)N([C@H]2C[C@@H](c3ccccc3)C2)CCN1Cc1ccc(-c2ccccc2)nn1 [Example 96B, cis-1-(3-phenylcyclobutyl)-4-((6-phenylpyridazin-3-yl)methyl)piperazine-2,3-dione]"
3,5,"O=C1C(=O)N(C2CCCC2)CCN1Cc1ccc(-c2ccccc2)nc1 [Example 97, 1-cyclopentyl-4-((6-phenylpyridin-3-yl)methyl)piperazine-2,3-dione]"
4,12,"O=C1C(=O)N(C2CCCC2)CCN1Cc1ccc(-c2ccccc2)cn1 [Example 98, 1-cyclopentyl-4-((5-phenylpyridin-2-yl)methyl)piperazine-2,3-dione]"
5,8,"O=C1C(=O)N(C2CCCC2)CCN1Cc1ccc(-c2ccccc2)cc1F [Example 100, 1-cyclopentyl-4-((3-fluoro-[1,1′-biphenyl]-4-yl)methyl)piperazine-2,3-dione]"
6,8,"O=C1C(=O)N(C2CCCC2)CCN1Cc1ncc(-c2ccccc2)cc1F [Example 101, 1-cyclopentyl-4-((3-fluoro-5-phenylpyridin-2-yl)methyl)piperazine-2,3-dione]"
7,14,"O=C1C(=O)N(C2CCCC2)CCN1Cc1cnc(-c2ccccc2)c(F)c1 [Example 102, 1-cyclopentyl-4-((5-fluoro-6-phenylpyridin-3-yl)methyl)piperazine-2,3-dione]"
8,11,"O=C1C(=O)N(C2CCCC2)CCN1Cc1cnc(-c2ccccc2)nn1 [Example 103, 1-cyclopentyl-4-((3-phenyl-1,2,4-triazin-6-yl)methyl)piperazine-2,3-dione]"
9,4,"O=C1C(=O)N(C2CCCC2)CCN1Cc1cc(-c2ccccc2)on1 [Example 104, 1-cyclopentyl-4-((5-phenylisoxazol-3-yl)methyl)piperazine-2,3-dione]"
10,2,"O=C1C(=O)N(C2CCC2)CCN1Cc1cc(-c2ccccc2)on1 [Example 105, 1-cyclobutyl-4-((5-phenylisoxazol-3-yl)methyl)piperazine-2,3-dione]"
11,7,"O=C1C(=O)N(C2CCC2)CCN1Cc1ncc(-c2ccccc2)cc1F [Example 106, 1-cyclobutyl-4-((3-fluoro-5-phenylpyridin-2-yl)methyl)piperazine-2,3-dione]"
12,13,"O=C1C(=O)N(C2CCC2)CCN1Cc1cnc(-c2ccccc2)nc1 [Example 107, 1-cyclobutyl-4-((2-phenylpyrimidin-5-yl)methyl)piperazine-2,3-dione]"
13,20,"CC(c1cnc(-c2ccccc2)cn1)N1CCN(C2CCC2)C(=O)C1=O (centres unmarked) [Example 108, 1-cyclobutyl-4-(1-(5-phenylpyrazin-2-yl)ethyl)piperazine-2,3-dione]"
14,24,"O=C1C(=O)N(C2CCC2)CCN1Cc1ccc(-n2ccnn2)nc1 [Example 109, 1-((6-(1H-1,2,3-triazol-1-yl)pyridin-3-yl)methyl)-4-cyclobutylpiperazine-2,3-dione]"
15,27,"O=C1C(=O)N(C23CC(C2)C3)CCN1Cc1cnc(-c2ccccc2)nc1 [Example 110, 1-(bicyclo[1.1.1]pentan-1-yl)-4-((2-phenylpyrimidin-5-yl)methyl)piperazine-2,3-dione]"
16,7,"O=C1C(=O)N(C23CC(C2)C3)CCN1Cc1cnc(-c2ccccc2)cn1 [Example 112, 1-(bicyclo[1.1.1]pentan-1-yl)-4-((5-phenylpyrazin-2-yl)methyl)piperazine-2,3-dione]"
17,15,"O=C1C(=O)N(C2CCC2)CCN1Cc1ccc(-n2nccn2)nc1 [Example 113, 1-((6-(2H-1,2,3-triazol-2-yl)pyridin-3-yl)methyl)-4-cyclobutylpiperazine-2,3-dione]"
18,7,"O=C1C(=O)N(C23CC(C2)C3)CCN1Cc1ccc(-c2ccccc2)cn1 [Example 114, 1-(bicyclo[1.1.1]pentan-1-yl)-4-((5-phenylpyridin-2-yl)methyl)piperazine-2,3-dione]"
19,7,"O=C1C(=O)N(C2CCC2)CCN1Cc1cnc(-c2ccccc2)cn1 [Example 118, 1-cyclobutyl-4-((5-phenylpyrazin-2-yl)methyl)piperazine-2,3-dione]"
20,4,"O=C1C(=O)N(C2CCCC2)CCN1CCc1cc(-c2ccccc2)on1 [Example 119, 1-cyclopentyl-4-(2-(5-phenylisoxazol-3-yl)ethyl)piperazine-2,3-dione]"
21,6,"O=C1C(=O)N(C23CC(C2)C3)CCN1Cc1ccc(-c2ccccc2)nc1 [Example 122, 1-(bicyclo[1.1.1]pentan-1-yl)-4-((6-phenylpyridin-3-yl)methyl)piperazine-2,3-dione]"
22,5,"O=C1C(=O)N(C2CCC2)CCN1Cc1cnc(-c2ccccc2)c(F)c1 [Example 123, 1-cyclobutyl-4-((5-fluoro-6-phenylpyridin-3-yl)methyl)piperazine-2,3-dione]"
23,3,O=c1c(=O)n([C@H]2C[C@H]3C[C@H]3C2)ccn1Cc1cnc(-c2ccccc2)cn1 [Example 125]
